# Measurements published in article PMC5986078 (Clinical cancer research : an official journal of the …, 2017).
# Key:
# LN229 cells = experiment: WST-1 proliferation assay; type: cell-based; conditions: Homo sapiens, LN-229, 72 h, read-out: IC50, proliferation (WST assay)
# [1] = test system: U251HF, LN229 and A172 cells; experiment: Wound healing; type: cell-based, human; conditions: 0.4 μM, 24 h, vs untreated controls
# GSC811 xenograft = experiment: Patient-derived GSC811 intracranial xenograft in mice; type: in vivo, mouse; conditions: TMZ 4 mg/kg oral daily x5, onalespib 30 mg/kg iv day 16 and 19; vs vehicle
# GSC lines = experiment: Transwell migration; type: cell-based, human
# GSC23 (PN) = experiment: WST-1 viability assay in glioma stem cells; type: cell-based, human; conditions: GSC23, highest concentrations of onalespib
# [2] = Brain and plasma pharmacokinetics by LC-MS/MS after iv bolus; type: in vivo, mouse; conditions: 30 mg/kg iv single dose
# [3] = test system: LN229, U251HF and A172 cells; experiment: Apoptosis: annexin V/PI flow cytometry and caspase-3/7 activation; type: cell-based, human
# EGFRvIII = experiment: Immunoblot in U87 cells expressing mutant EGFRvIII; type: cell-based, human; conditions: 0.1, 0.2, 0.4 μM
# U251HF cells = experiment: WST-1 proliferation assay; type: cell-based; conditions: Homo sapiens, 72 h, read-out: IC50, proliferation (WST assay)
# U251HF-GFP xenograft = experiment: Orthotopic intracranial zebrafish glioma xenograft; conditions: TMZ 10 μM, onalespib 0.5 μM in fish water, 5-10 dpt
# [4] = test system: LN229, U251HF and A172 cells; experiment: Colony forming assay; type: cell-based, human; conditions: 0.4 μM for 24 h, colonies after 10 days
# CD133, Nestin, Olig2 = experiment: Stem cell marker expression in GSC11 and GSC23; type: cell-based, human
# GSC11 (PN) = experiment: WST-1 viability assay in glioma stem cells; type: cell-based, human; conditions: GSC11, highest concentrations of onalespib
# HSP90 [5] = experiment: HSP70 immunohistochemistry of brain tissue as marker of HSP90 inhibition in vivo; parameters: species or system mouse; conditions: 30 mg/kg iv, 0-24 h, vs vehicle treated mice
# p-STAT3 = p-STAT3 immunoblot in MES and PN GSC lines; type: cell-based, human; conditions: 48 h
# [6] = test system: endothelial cells exposed to conditioned medium of LN229, U251HF and A172 cells; type: cell-based; conditions: 0.4 μM for 24 h
# EGFR signaling pathway = experiment: Immunoblot of EGFR-AKT-ERK-S6 signaling in glioma cell lines; type: cell-based, human
# [7] = test system: HSP90 / EGFR pathway in GSC11 and GSC23; experiment: Immunoblot of HSP70 and EGFR pathway in GSC11 and GSC23 neurospheres; type: cell-based, human; conditions: GSC11 and GSC23, 48 h
# A172 cells = experiment: WST-1 proliferation assay; type: cell-based; conditions: Homo sapiens, A 172, 72 h, read-out: IC50, proliferation (WST assay)
# GSC2 (MES) = experiment: WST-1 viability assay in glioma stem cells; type: cell-based, human; conditions: GSC2, highest concentrations of onalespib
# GSC20 (MES) = experiment: WST-1 viability assay in glioma stem cells; type: cell-based, human; conditions: GSC20, highest concentrations of onalespib
# HSP90 [8] = experiment: HSP70 immunoblot as biomarker of HSP90 inhibition in glioma cell lines; type: cell-based, human; conditions: LN229, U251HF, A172; 0.1, 0.2, 0.4 μM, 48 h
structure (smiles),measurement,setting,value
"CC(C)c1cc(C(=O)N2Cc3ccc(CN4CCN(C)CC4)cc3C2)c(O)cc1O [onalespib, (2,4-dihydroxy-5-isopropylphenyl)-[5-(4-methylpiperazin-1-ylmethyl)-1,3-dihydroisoindol-2-yl]methanone]",IC50,LN229 cells,≤ 250 nM
same,"cell migration, wound healing",[1],reduced ability to migrate
same,survival,GSC811 xenograft,did not extend survival
same,"invasive ability, transwell migration",GSC lines,markedly decreased
same,loss of viability,GSC23 (PN),50%
same,brain Cmax relative to plasma Cmax (fold lower),[2],4.7 fold
same,overall brain exposure versus plasma,[2],greater than of plasma
same,onalespib level in brain tissue versus plasma,[2]; each time point from 2 h up to 24 h,higher in brain tissue compared to the plasma
same,activation of caspase-3 and caspase-7,[3]; increasing concentrations of onalespib,dose-dependent activation
same,percentage of annexin positive cells,"[3]; increasing concentrations, 48 h",increase
same,depletion of mutant EGFRvIII and downstream intermediates,EGFRvIII,equally effective
same,IC50,U251HF cells,≤ 250 nM
same,survival,U251HF-GFP xenograft,extended survival
same,tumor burden,U251HF-GFP xenograft,moderate reductions
same,colony formation (proliferative capacity),[4],significantly inhibited
same,expression of stem cell markers CD133 and Nestin,"CD133, Nestin, Olig2",dose-dependent decrease
same,loss of viability,GSC11 (PN),over 90%
same,percentage and intensity of HSP70 pixels in brain tissue,HSP90 [5],increase
same,p-STAT3,p-STAT3,inhibited
same,number of microtubules formed by endothelial cells in response to CM,[6],strongly inhibited
same,"EGFR level, time course","EGFR signaling pathway; 0.4 μM, up to 24 h",time-dependent decline
same,"levels of EGFR, p-EGFR, phospho- and total AKT, ERK1/2 and S6","EGFR signaling pathway; U251HF, LN229, A172, 0.1-0.4 μM, 48 h",robust dose-dependent decrease
same,HSP70 levels in GSC,[7],characteristic increase
same,"levels of total EGFR, pEGFR in GSC",[7],steep declines
same,IC50,A172 cells,≤ 250 nM
same,viability (lost to),GSC2 (MES),50%
same,viability (lost to),GSC20 (MES),50%
same,HSP70 levels (marker of HSP90 inhibition),HSP90 [8],increase in HSP70 levels in cells in a dose-dependent manner
"Cn1nnc2c(C(N)=O)ncn2c1=O [TMZ, temozolomide]",survival,GSC811 xenograft,did not extend survival
same,tumor burden,U251HF-GFP xenograft,moderate reductions
